According to patent US7880007B2, “Bicyclic substituted phenyl piperidine modulators of muscarinic receptors” (Vertex Pharmaceuticals Incorporated, priority 2004, dated 2011):

Tests used:
Assay type in all cases: cell-based
[1] = target: T1, M1 muscarinic receptor (Homo sapiens, UniProt P11229); assay: Functional mobilization of intracellular calcium (FLIPR), M1-CHO cells; details: for M1 Activity: M1-CHO cells, calcium mobilization (FLIPR)
T1 construct: expressed in transfected cells; host or cells: CHO (M1-CHO)
T1 sequence (P11229 1-460): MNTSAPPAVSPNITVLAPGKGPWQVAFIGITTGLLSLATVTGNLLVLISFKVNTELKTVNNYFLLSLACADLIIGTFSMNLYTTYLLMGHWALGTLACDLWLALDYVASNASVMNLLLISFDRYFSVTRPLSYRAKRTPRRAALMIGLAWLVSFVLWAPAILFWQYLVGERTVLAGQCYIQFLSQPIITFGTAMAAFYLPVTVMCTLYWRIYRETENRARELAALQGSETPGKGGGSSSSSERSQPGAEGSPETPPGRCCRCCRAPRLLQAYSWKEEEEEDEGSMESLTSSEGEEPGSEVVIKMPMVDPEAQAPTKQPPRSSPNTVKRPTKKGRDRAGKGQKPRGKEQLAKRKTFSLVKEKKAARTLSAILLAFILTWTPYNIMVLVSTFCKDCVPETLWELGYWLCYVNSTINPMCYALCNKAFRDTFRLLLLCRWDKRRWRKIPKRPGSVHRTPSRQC
Method in brief: (§1)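 CHO cells expressing human M1–M4 receptors loaded with Fluo-3 AM or Calcium 3 dye (1 mM probenecid, pH 7.4); 0.5% DMSO final. Agonist mode: compound added directly; antagonist mode: 15 min pre-incubation or co-application, then carbachol at EC80. Fluorescence read 60 s on FLIPR; efficacy relative to carbachol maximum.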

[2] = target: T2, M2 muscarinic receptor (Homo sapiens, UniProt P08172); assay: Functional mobilization of intracellular calcium (FLIPR), M2-CHO cells; details: for M2 Activity: M2-CHO cells, calcium mobilization (FLIPR)
T2 construct: expressed in transfected cells; host or cells: CHO (M2-CHO)
T2 sequence (P08172 1-466): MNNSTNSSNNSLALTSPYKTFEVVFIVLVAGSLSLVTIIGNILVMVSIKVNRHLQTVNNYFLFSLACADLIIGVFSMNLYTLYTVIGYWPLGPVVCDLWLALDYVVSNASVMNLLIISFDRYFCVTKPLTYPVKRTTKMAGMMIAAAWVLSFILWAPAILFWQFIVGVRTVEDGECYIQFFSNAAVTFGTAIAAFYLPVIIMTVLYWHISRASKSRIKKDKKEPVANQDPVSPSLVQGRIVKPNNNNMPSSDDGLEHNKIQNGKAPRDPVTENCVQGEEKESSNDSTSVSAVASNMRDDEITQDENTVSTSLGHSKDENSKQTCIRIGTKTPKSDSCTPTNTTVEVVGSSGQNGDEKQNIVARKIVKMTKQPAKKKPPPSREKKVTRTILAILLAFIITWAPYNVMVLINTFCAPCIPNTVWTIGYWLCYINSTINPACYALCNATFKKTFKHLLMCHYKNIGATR
Method in brief: as §1

[3] = target: T3, M3 muscarinic receptor (Homo sapiens, UniProt P20309); assay: Functional mobilization of intracellular calcium (FLIPR), M3-CHO cells; details: for M3 Activity: M3-CHO cells, calcium mobilization (FLIPR)
T3 construct: expressed in transfected cells; host or cells: CHO (M3-CHO)
Method in brief: as §1

[4] = target: T4, M4 muscarinic receptor (Homo sapiens, UniProt P08173); assay: Functional mobilization of intracellular calcium (FLIPR), M4-CHO cells; details: for M4 Activity: M4-CHO cells, calcium mobilization (FLIPR)
T4 construct: expressed in transfected cells; host or cells: CHO (M4-CHO)
T4 sequence (P08173 1-479): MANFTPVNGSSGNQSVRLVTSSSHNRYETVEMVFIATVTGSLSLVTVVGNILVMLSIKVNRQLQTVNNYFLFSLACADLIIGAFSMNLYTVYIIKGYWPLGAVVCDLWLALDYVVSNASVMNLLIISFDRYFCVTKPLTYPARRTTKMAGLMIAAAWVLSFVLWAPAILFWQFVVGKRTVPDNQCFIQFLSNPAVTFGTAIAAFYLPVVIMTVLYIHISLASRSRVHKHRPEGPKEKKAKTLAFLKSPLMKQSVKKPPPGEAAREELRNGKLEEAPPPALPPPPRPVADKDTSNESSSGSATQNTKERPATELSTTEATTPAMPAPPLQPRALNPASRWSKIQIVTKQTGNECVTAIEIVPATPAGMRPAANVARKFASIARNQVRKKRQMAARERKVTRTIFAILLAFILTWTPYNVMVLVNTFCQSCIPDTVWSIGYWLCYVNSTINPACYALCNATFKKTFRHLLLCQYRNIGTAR
Method in brief: as §1

[5] = 100% efficacy is the maximum response obtained with the Carbachol control
[6] = 100% efficacy = maximum response obtained with the Carbachol control

T3 sequence (P20309 whole entry): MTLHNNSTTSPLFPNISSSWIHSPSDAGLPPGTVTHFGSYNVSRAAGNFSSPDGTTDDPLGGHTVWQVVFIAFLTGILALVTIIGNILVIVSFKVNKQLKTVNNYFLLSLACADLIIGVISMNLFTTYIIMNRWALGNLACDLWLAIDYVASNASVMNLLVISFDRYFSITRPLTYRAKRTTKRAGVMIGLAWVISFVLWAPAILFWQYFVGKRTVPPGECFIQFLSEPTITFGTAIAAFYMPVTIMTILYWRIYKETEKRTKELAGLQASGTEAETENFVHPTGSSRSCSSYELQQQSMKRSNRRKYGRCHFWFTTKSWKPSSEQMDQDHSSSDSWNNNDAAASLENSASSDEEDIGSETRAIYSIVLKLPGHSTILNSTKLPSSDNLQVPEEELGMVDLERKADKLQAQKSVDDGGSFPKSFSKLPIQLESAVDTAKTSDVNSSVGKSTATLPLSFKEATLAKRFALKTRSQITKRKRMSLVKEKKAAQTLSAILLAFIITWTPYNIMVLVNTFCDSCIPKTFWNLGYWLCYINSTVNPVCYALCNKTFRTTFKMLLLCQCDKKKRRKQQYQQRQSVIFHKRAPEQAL

SMILES	Emax [1, 5]	M1 Activity [1]	Emax [2, 5]	M2 Activity [2]	Emax [3, 5]	M3 Activity [3]	Emax [4, 5]	M4 Activity [4]	Emax [1, 6]	Emax [2, 6]	Emax [3, 6]	Emax [4, 6]	M1 Efficacy [1, 6]	M2 Efficacy [2, 6]	M3 Efficacy [3, 6]	M4 Efficacy [4, 6]
COc1ccccc1C1CCN(C2CCCC(C)C2)CC1 (stereo not shown) [Compound 398]	25 to 100%	+ (activity was measured to be greater than 5.0 μM)	< 25%	+ (activity was measured to be greater than 5.0 μM)	< 25%	+ (activity was measured to be greater than 5.0 μM)	25 to 100%	+++ (activity was measured to be less than 1.0 μM)	–	–	–	–	–	–	–	–
FC(F)(F)Oc1ccccc1C1CCN([C@H]2C[C@H]3CC[C@H]2C3)CC1 [Compound 183]	–	+ (activity was measured to be greater than 5.0 μM)	–	+ (activity was measured to be greater than 5.0 μM)	–	+ (activity was measured to be greater than 5.0 μM)	–	+++ (activity was measured to be less than 1.0 μM)	25 to 100%	< 25%	< 25%	25 to 100%	–	–	–	–
Cc1ccccc1C1CCN(CC2CC3C=CC2C3)CC1 (stereo not shown) [Compound 46]	–	++ (activity was measured to be from 1.0 μM to 5.0 μM)	–	+ (activity was measured to be greater than 5.0 μM)	–	+ (activity was measured to be greater than 5.0 μM)	–	+++ (activity was measured to be less than 1.0 μM)	25 to 100%	25 to 100%	–	25 to 100%	–	–	–	–
COC(=O)CC1CCCC(N2CCC(c3ccccc3OC)CC2)C1 (stereo not shown) [Compound 238]	–	+ (activity was measured to be greater than 5.0 μM)	–	+ (activity was measured to be greater than 5.0 μM)	–	+ (activity was measured to be greater than 5.0 μM)	–	+++ (activity was measured to be less than 1.0 μM)	25 to 100%	< 25%	< 25%	25 to 100%	–	–	–	–
COc1ccccc1C1CC2CCC(C1)N2C1CCCCC1 (stereo not shown) [Compound 132]	–	++ (activity was measured to be from 1.0 μM to 5.0 μM)	–	+ (activity was measured to be greater than 5.0 μM)	–	+ (activity was measured to be greater than 5.0 μM)	–	++ (activity was measured to be from 1.0 μM to 5.0 μM)	< 25%	< 25%	< 25%	< 25%	–	–	–	–
CNC(=O)c1ccc(-c2ccc(OC)c(C3CCN([C@H]4C[C@H]5CC[C@H]4C5)CC3)c2)cc1 [Compound 388]	< 25%	+ (activity was measured to be greater than 5.0 μM)	< 25%	+ (activity was measured to be greater than 5.0 μM)	< 25%	+ (activity was measured to be greater than 5.0 μM)	25 to 100%	+++ (activity was measured to be less than 1.0 μM)	–	–	–	–	–	–	–	–
COc1ccc(Cl)cc1C1CCN(C2CCC(=NOC3CCCCO3)CC2)CC1 (stereo not shown) [Compound 54]	–	++ (activity was measured to be from 1.0 μM to 5.0 μM)	–	+ (activity was measured to be greater than 5.0 μM)	–	+ (activity was measured to be greater than 5.0 μM)	–	+++ (activity was measured to be less than 1.0 μM)	–	–	–	–	++ (efficacy was calculated to be from 100% to 25%)	+ (efficacy was calculated to be less than 25%)	+ (efficacy was calculated to be less than 25%)	++ (efficacy was calculated to be from 100% to 25%)
COc1ccccc1C1CCN(C2CCC(C(C)C)CC2)CC1 (stereo not shown) [Compound 155]	–	+ (activity was measured to be greater than 5.0 μM)	–	+ (activity was measured to be greater than 5.0 μM)	–	+ (activity was measured to be greater than 5.0 μM)	–	+ (activity was measured to be greater than 5.0 μM)	< 25%	< 25%	< 25%	< 25%	–	–	–	–
Cc1ccc(C)c(C2(O)CCN(CC3CC4C=CC3C4)CC2)c1 (stereo not shown) [Compound 62, 1-((bicyclo[2.2.1]hept-5-en-2-yl)methyl)-4-(2,5-dimethylphenyl)piperidin-4-ol]	–	++ (activity was measured to be from 1.0 μM to 5.0 μM)	–	+ (activity was measured to be greater than 5.0 μM)	–	+ (activity was measured to be greater than 5.0 μM)	–	++ (activity was measured to be from 1.0 μM to 5.0 μM)	25 to 100%	< 25%	–	25 to 100%	–	–	–	–
COc1ccccc1C1CCN(C2CCCC3(CCCCC3)C2)CC1 (stereo not shown) [Compound 199]	–	+ (activity was measured to be greater than 5.0 μM)	–	+ (activity was measured to be greater than 5.0 μM)	–	+ (activity was measured to be greater than 5.0 μM)	–	+ (activity was measured to be greater than 5.0 μM)	< 25%	< 25%	< 25%	< 25%	–	–	–	–
COc1ccc(C(=O)c2ccoc2)cc1C1CCN([C@@H]2C[C@H]3CC[C@H]2C3)CC1 [Compound 416]	< 25%	+ (activity was measured to be greater than 5.0 μM)	< 25%	+ (activity was measured to be greater than 5.0 μM)	< 25%	+ (activity was measured to be greater than 5.0 μM)	25 to 100%	++ (activity was measured to be from 1.0 μM to 5.0 μM)	–	–	–	–	–	–	–	–
CCOC(=O)N1CCC(CN2CCC(c3cc(-c4ccc(C(=O)NC)cc4)ccc3OC)CC2)CC1 [Compound 243]	–	+++ (activity was measured to be less than 1.0 μM)	–	+ (activity was measured to be greater than 5.0 μM)	–	+ (activity was measured to be greater than 5.0 μM)	–	+++ (activity was measured to be less than 1.0 μM)	25 to 100%	< 25%	< 25%	25 to 100%	–	–	–	–
